Test results: PubChem BioAssay AID1963984 (Molecular Pharmacology Branch, DTP, NCI, 2024)

Tested on: 233499-124-R-J3-PDC spheroids with HUVEC/MSC, viability
Experiment: Anticancer human tumor 233499-124-R-J3-PDC patient-derived colon adenocarcinoma cell line growth inhibition [PI3K]
Conditions: for IC50: curve of first compound; for viability, T/C: stronger effect = lower value
In short: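 High-throughput combination screen: PI3K inhibitors crossed with targeted small molecules on complex spheroids of tumor cells, HUVEC and MSCs at 37 degrees C, 5% CO2. Top concentration was at or near clinical Cmax (otherwise 10 microM), with half-log decrements.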

[1] = second compound 0.00316 µM, first compound 0.0316 µM
[2] = second compound 0.00316 µM, first compound 0.1 µM
[3] = second compound 0.00316 µM, first compound 0.316 µM
[4] = second compound 0.00316 µM, first compound 1 µM
[5] = second compound 0.00316 µM, first compound 3.16 µM
[6] = second compound 0.00316 µM, first compound 10 µM
[7] = second compound 0.01 µM, first compound 0.0316 µM
[8] = second compound 0.01 µM, first compound 0.1 µM
[9] = second compound 0.01 µM, first compound 0.316 µM
[10] = second compound 0.01 µM, first compound 1 µM
[11] = second compound 0.01 µM, first compound 3.16 µM
[12] = second compound 0.01 µM, first compound 10 µM
[13] = second compound 0.0316 µM, first compound 0.0316 µM
[14] = second compound 0.0316 µM, first compound 0.1 µM
[15] = second compound 0.0316 µM, first compound 0.316 µM
[16] = second compound 0.0316 µM, first compound 1 µM
[17] = second compound 0.0316 µM, first compound 3.16 µM
[18] = second compound 0.0316 µM, first compound 10 µM
[19] = second compound 0.1 µM, first compound 0.0316 µM
[20] = second compound 0.1 µM, first compound 0.1 µM
[21] = second compound 0.1 µM, first compound 0.316 µM
[22] = second compound 0.1 µM, first compound 1 µM
[23] = second compound 0.1 µM, first compound 3.16 µM
[24] = second compound 0.1 µM, first compound 10 µM
[25] = second compound 0.316 µM, first compound 0.0316 µM
[26] = second compound 0.316 µM, first compound 0.1 µM
[27] = second compound 0.316 µM, first compound 0.316 µM
[28] = second compound 0.316 µM, first compound 1 µM
[29] = second compound 0.316 µM, first compound 3.16 µM
[30] = second compound 0.316 µM, first compound 10 µM
[31] = second compound 1 µM, first compound 0.0316 µM
[32] = second compound 1 µM, first compound 0.1 µM
[33] = second compound 1 µM, first compound 0.316 µM
[34] = second compound 1 µM, first compound 1 µM
[35] = second compound 1 µM, first compound 3.16 µM
[36] = second compound 1 µM, first compound 10 µM
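Further: spheroids exposed to agents for seven days before readout.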
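Wherever viability, T/C is given: percent viability relative to DMSO vehicle control taken as 100%.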

SMILES: C#Cc1c(F)ccc2cc(O)cc(-c3ncc4c(N5CC6CCC(C5)N6)nc(OCC56CCCN5CC(F)C6)nc4c3F)c12 (stereo not drawn) + CC(Nc1ccc2c(c1)OCCn1cc(N3C(=O)OCC3C(F)F)nc1-2)C(N)=O
- IC50 (second compound 0.00316 µM): > 10000 nM
- IC50 (second compound 0.01 µM): 2920 nM
- IC50 (second compound 0.0316 µM): > 10000 nM
- IC50 (second compound 0.1 µM): > 10000 nM
- IC50 (second compound 0.316 µM): 5350 nM
- IC50 (second compound 1 µM): 716 nM
- viability, T/C [1]: 83.7%
- viability, T/C [2]: 76%
- viability, T/C [3]: 92%
- viability, T/C [4]: 110%
- viability, T/C [5]: 95.3%
- viability, T/C [6]: 85.5%
- viability, T/C [7]: 99.1%
- viability, T/C [8]: 105%
- viability, T/C [9]: 91.4%
- viability, T/C [10]: 98.7%
- viability, T/C [11]: 46.5%
- viability, T/C [12]: 46%
- viability, T/C [13]: 93.1%
- viability, T/C [14]: 102%
- viability, T/C [15]: 85.4%
- viability, T/C [16]: 85.4%
- viability, T/C [17]: 95.8%
- viability, T/C [18]: 77.4%
- viability, T/C [19]: 99.8%
- viability, T/C [20]: 81%
- viability, T/C [21]: 83.9%
- viability, T/C [22]: 60.2%
- viability, T/C [23]: 70.8%
- viability, T/C [24]: 49.6%
- viability, T/C [25]: 77.2%
- viability, T/C [26]: 78.2%
- viability, T/C [27]: 63.2%
- viability, T/C [28]: 75.1%
- viability, T/C [29]: 59.2%
- viability, T/C [30]: 38%
- viability, T/C [31]: 67.8%
- viability, T/C [32]: 58.6%
- viability, T/C [33]: 58.6%
- viability, T/C [34]: 44%
- viability, T/C [35]: 44.4%
- viability, T/C [36]: 35.2%

SMILES: CC1(C)CCC(Nc2ncc(C(F)(F)F)c(-c3c[nH]c4c(P(C)(C)=O)c(C#N)ccc34)n2)CN1 (stereo not drawn) + CC(Nc1ccc2c(c1)OCCn1cc(N3C(=O)OCC3C(F)F)nc1-2)C(N)=O
- IC50 (second compound 0.00316 µM): 73.8 nM
- IC50 (second compound 0.01 µM): < 31.6 nM
- IC50 (second compound 0.0316 µM): 94 nM
- IC50 (second compound 0.1 µM): < 31.6 nM
- IC50 (second compound 0.316 µM): 84.3 nM
- IC50 (second compound 1 µM): < 31.6 nM
- viability, T/C [1]: 55.3%
- viability, T/C [2]: 58.7%
- viability, T/C [3]: 24.6%
- viability, T/C [4]: 19.3%
- viability, T/C [5]: 34.4%
- viability, T/C [6]: 1.55%
- viability, T/C [7]: 39.4%
- viability, T/C [8]: 42.9%
- viability, T/C [9]: 34.9%
- viability, T/C [10]: 22.1%
- viability, T/C [11]: 22.7%
- viability, T/C [12]: 1.45%
- viability, T/C [13]: 79.9%
- viability, T/C [14]: 44.4%
- viability, T/C [15]: 31.4%
- viability, T/C [16]: 17%
- viability, T/C [17]: 17.1%
- viability, T/C [18]: 1.3%
- viability, T/C [19]: 36.5%
- viability, T/C [20]: 40.7%
- viability, T/C [21]: 24.5%
- viability, T/C [22]: 13.8%
- viability, T/C [23]: 18.9%
- viability, T/C [24]: 4.74%
- viability, T/C [25]: 67.4%
- viability, T/C [26]: 43%
- viability, T/C [27]: 34.3%
- viability, T/C [28]: 19.4%
- viability, T/C [29]: 20.7%
- viability, T/C [30]: 2.38%
- viability, T/C [31]: 49%
- viability, T/C [32]: 29.3%
- viability, T/C [33]: 28.6%
- viability, T/C [34]: 18.6%
- viability, T/C [35]: 25.9%
- viability, T/C [36]: 0.86%

SMILES: CNC(=O)c1ccc(N2C(=S)N(c3ccc(C#N)c(C(F)(F)F)c3)C(=O)C2(C)C)cc1F + CC(Nc1ncnc2nc[nH]c12)c1cc2cccc(Cl)c2c(=O)n1-c1ccccc1
- IC50 (second compound 0.0316 µM): > 10000 nM
- IC50 (second compound 0.1 µM): > 10000 nM
- IC50 (second compound 0.316 µM): > 10000 nM
- IC50 (second compound 1 µM): > 10000 nM
- IC50 (second compound 3.16 µM): > 10000 nM
- IC50 (second compound 10 µM): > 10000 nM
- viability, T/C [13]: 106%
- viability, T/C [14]: 92.8%
- viability, T/C [15]: 88.1%
- viability, T/C [16]: 94.5%
- viability, T/C [17]: 79.7%
- viability, T/C [18]: 63.6%
- viability, T/C [19]: 101%
- viability, T/C [20]: 81%
- viability, T/C [21]: 96.5%
- viability, T/C [22]: 76.3%
- viability, T/C [23]: 80.8%
- viability, T/C [24]: 83.9%
- viability, T/C [25]: 102%
- viability, T/C [26]: 90.1%
- viability, T/C [27]: 92.6%
- viability, T/C [28]: 80.5%
- viability, T/C [29]: 71.7%
- viability, T/C [30]: 52.6%
- viability, T/C [31]: 81.5%
- viability, T/C [32]: 95.7%
- viability, T/C [33]: 96.5%
- viability, T/C [34]: 77.4%
- viability, T/C [35]: 78.2%
- viability, T/C [36]: 68.3%
- viability, T/C (second compound 3.16 µM, first compound 0.0316 µM): 107%
- viability, T/C (second compound 3.16 µM, first compound 0.1 µM): 76.6%
- viability, T/C (second compound 3.16 µM, first compound 0.316 µM): 104%
- viability, T/C (second compound 3.16 µM, first compound 1 µM): 87.6%
- viability, T/C (second compound 3.16 µM, first compound 3.16 µM): 80.8%
- viability, T/C (second compound 3.16 µM, first compound 10 µM): 68.4%
- viability, T/C (second compound 10 µM, first compound 0.0316 µM): 85.7%
- viability, T/C (second compound 10 µM, first compound 0.1 µM): 97.3%
- viability, T/C (second compound 10 µM, first compound 0.316 µM): 93.3%
- viability, T/C (second compound 10 µM, first compound 1 µM): 95.6%
- viability, T/C (second compound 10 µM, first compound 3.16 µM): 60.9%
- viability, T/C (second compound 10 µM, first compound 10 µM): 58.3%

SMILES: Cn1cnc2c(F)c(Nc3ccc(Br)cc3Cl)c(C(=O)NOCCO)cc21 + CC(Nc1ncnc2nc[nH]c12)c1cc2cccc(Cl)c2c(=O)n1-c1ccccc1
- IC50 (second compound 0.0316 µM): 600 nM
- IC50 (second compound 0.1 µM): 603 nM
- IC50 (second compound 0.316 µM): 511 nM
- IC50 (second compound 1 µM): 281 nM
- IC50 (second compound 3.16 µM): 275 nM
- IC50 (second compound 10 µM): 455 nM
- viability, T/C (second compound 0.0316 µM, first compound 0.00949 µM): 68.9%
- viability, T/C (second compound 0.0316 µM, first compound 0.03 µM): 69.2%
- viability, T/C (second compound 0.0316 µM, first compound 0.0949 µM): 66%
- viability, T/C (second compound 0.0316 µM, first compound 0.3 µM): 70.9%
- viability, T/C (second compound 0.0316 µM, first compound 0.949 µM): 37.6%
- viability, T/C (second compound 0.0316 µM, first compound 3 µM): 28.6%
- viability, T/C (second compound 0.1 µM, first compound 0.00949 µM): 83.8%
- viability, T/C (second compound 0.1 µM, first compound 0.03 µM): 73.6%
- viability, T/C (second compound 0.1 µM, first compound 0.0949 µM): 64.9%
- viability, T/C (second compound 0.1 µM, first compound 0.3 µM): 67.6%
- viability, T/C (second compound 0.1 µM, first compound 0.949 µM): 40.3%
- viability, T/C (second compound 0.1 µM, first compound 3 µM): 19.5%
- viability, T/C (second compound 0.316 µM, first compound 0.00949 µM): 90%
- viability, T/C (second compound 0.316 µM, first compound 0.03 µM): 76.5%
- viability, T/C (second compound 0.316 µM, first compound 0.0949 µM): 61.1%
- viability, T/C (second compound 0.316 µM, first compound 0.3 µM): 64%
- viability, T/C (second compound 0.316 µM, first compound 0.949 µM): 41%
- viability, T/C (second compound 0.316 µM, first compound 3 µM): 31%
- viability, T/C (second compound 1 µM, first compound 0.00949 µM): 96.6%
- viability, T/C (second compound 1 µM, first compound 0.03 µM): 73.4%
- viability, T/C (second compound 1 µM, first compound 0.0949 µM): 53%
- viability, T/C (second compound 1 µM, first compound 0.3 µM): 51.5%
- viability, T/C (second compound 1 µM, first compound 0.949 µM): 51.7%
- viability, T/C (second compound 1 µM, first compound 3 µM): 22.4%
- viability, T/C (second compound 3.16 µM, first compound 0.00949 µM): 76.8%
- viability, T/C (second compound 3.16 µM, first compound 0.03 µM): 76.2%
- viability, T/C (second compound 3.16 µM, first compound 0.0949 µM): 64.7%
- viability, T/C (second compound 3.16 µM, first compound 0.3 µM): 48.9%
- viability, T/C (second compound 3.16 µM, first compound 0.949 µM): 40%
- viability, T/C (second compound 3.16 µM, first compound 3 µM): 37.1%
- viability, T/C (second compound 10 µM, first compound 0.00949 µM): 74.6%
- viability, T/C (second compound 10 µM, first compound 0.03 µM): 52.1%
- viability, T/C (second compound 10 µM, first compound 0.0949 µM): 72.8%
- viability, T/C (second compound 10 µM, first compound 0.3 µM): 50%
- viability, T/C (second compound 10 µM, first compound 0.949 µM): 43.4%
- viability, T/C (second compound 10 µM, first compound 3 µM): 25.3%
